# What was measured:
# Type in all cases: in vivo
# [1] = test system: developing type II collagen arthritis in rats; assay: Overall effect on developing arthritis parameters, rat type II collagen arthritis; conditions: for Effect on arthritis parameters: alone
# From the text: (§1) Female Lewis rats (n=74) weighing 140-161 grams (mean approximate weight=148 g) on day 0 of the study were obtained from Charles River Laboratories, Inc., Wilmington, Mass. Animals were identified by a distinct number delineating group and animal number. After randomization, all cages were labeled with protocol number, group number, and animal number with appropriate color-coding.
# (§2) Animals were anesthetized with Isoflurane and received subcutaneous/intradermal (SC/ID) injections with […] of Freund's Incomplete Adjuvant (Difco, Detroit, Mich.) containing 2 mg/ml bovine type II collagen (Elastin Products, Owensville, Mo.) at the base of the tail and two sites on the back on days 0 and 6. Dosing was initiated on day 0 of the study (prior to boosting procedures) and continued daily (QD at 24 hour intervals) through day 16. Animals were terminated on day 17. The experimental groups were as follows in Table 1, wherein “CH vehicle” means the vehicle used to deliver the compound CH-4051 without the inclusion of the active compound, and “MTX vehicle” means the vehicle used to deliver methotrexate without the inclusion of the active compound. The terms “QD” and “PO” have the standard meanings in the art—i.e., “once daily” and “by mouth”, respectively.
# (§3) Clinical data for ankle joint diameter were analyzed by determining the area under the curve (AUC). For calculation of AUC, the daily measurement of ankle joints (using a caliper) for each rat were entered into a spreadsheet, and the area between the treatment days after the onset of disease to the termination day was computed. Means for each group were determined and % inhibition from arthritis controls was calculated by comparing values for treated and […] animals. Data were analyzed using a Student's t-test or Mann-Whitney U test (non-parametric). If applicable, data were analyzed again, across all groups, using a one-way analysis of variance (1-way ANOVA) or Kruskal-Wallis test (non-parametric), along with the appropriate multiple comparison post-test. ANOVA was performed using Prism 5.0c software (GraphPad Software, Inc.). Significance for all tests was set at p<0.05. Percent inhibition was calculated using the following formula: […]. The results of the testing are described below in relation to the various, referenced figures. In all cases, n=4 for Normal Controls, and n=10 for the treatment group.
# [2] = test system: developing type II collagen arthritis in rats; assay: Knee histopathology in 17 day rat developing type II collagen arthritis test
# From the text: as §1, §2
# (§4) After final body weight measurement on day 17, animals were anesthetized for terminal serum collection (retained), and then euthanized for tissue collection. Hind paws were transected at the level of the medial and lateral malleolus, weighed, and were placed in formalin with knees for potential microscopy. Livers, spleen, and thymus were removed, trimmed, weighed, and discarded.
# (§5) Preserved and decalcified (5% formic acid) ankle and knee joints were cut in half longitudinally (ankles) or in the frontal plane (knees), processed through graded alcohols and a clearing agent, infiltrated and embedded in paraffin, sectioned, and stained with Toluidine Blue (T. blue) by Bolder BioPATH, Inc. associated personnel (HistoTox Labs, Inc.). Tissues from all animals were examined microscopically by a board certified veterinary pathologist, and observations were entered into a computer-assisted data retrieval system.
# as §3
# [3] = Body weight gain in 17 day rat developing type II collagen arthritis test; conditions: vs vehicle treated disease controls
# From the text: as §1
# Animals were anesthetized with Isoflurane and received subcutaneous/intradermal (SC/ID) injections with […] of Freund's Incomplete Adjuvant (Difco, Detroit, Mich.) containing 2 mg/ml bovine type II collagen (Elastin Products, Owensville, Mo.) at the base of the tail and two sites on the back on days 0 and 6. Dosing was initiated on day 0 of the study (prior to boosting procedures) and continued daily (QD at 24 hour intervals) through day 16. Animals were terminated on day 17. […]
# Clinical data for ankle joint diameter were analyzed by determining the area under the curve (AUC). […] Means for each group were determined and % inhibition from arthritis controls was calculated by comparing values for treated and […] animals. Data were analyzed using a Student's t-test or Mann-Whitney U test (non-parametric). If applicable, data were analyzed again, across all groups, using a one-way analysis of variance (1-way ANOVA) or Kruskal-Wallis test (non-parametric), along with the appropriate multiple comparison post-test. […]
# [4] = test system: developing type II collagen arthritis in rats; assay: Ankle histopathology in 17 day rat developing type II collagen arthritis test; conditions: for Ankle histopathology, reduction of summed scores: vs vehicle treated disease controls
# From the text: as §1, §2, §4, §5, §3
# [5] = test system: developing type II collagen arthritis in rats; assay: Ankle diameter (caliper) in 17 day rat developing type II collagen arthritis test; conditions: for Daily ankle diameter reduced toward normal, days of significance: vs vehicle controls; for Ankle diameter AUC reduction toward normal: vs vehicle treated disease controls
# From the text: as §1, §2
# Rats were weighed on days 0, 3, 6, and 9-17 of the study, and caliper measurements of ankles were taken every day beginning on day 9 (or day 0 of arthritis). Ankle caliper measurements were made with Digitrix II micrometer (Fowler & NSK). Baseline measurements were taken using one ankle with values rounded to one-thousandth of an inch. Measurements were confirmed as clinically normal (0.260-0.264 inches) by comparison with historical values for rats based on a range of body weights. Baseline measurements were then applied to both ankles, and these values remained with the animal so long as the ankle was clinically normal with good definition of all the ankle bones and no evidence of inflammation.
# Clinical data for ankle joint diameter were analyzed by determining the area under the curve (AUC). […] Means for each group were determined and % inhibition from arthritis controls was calculated by comparing values for treated and […] animals. Data were analyzed using a Student's t-test or Mann-Whitney U test (non-parametric). If applicable, data were analyzed again, across all groups, using a one-way analysis of variance (1-way ANOVA) or Kruskal-Wallis test (non-parametric), along with the appropriate multiple comparison post-test. […] Percent inhibition was calculated using the following formula: % Change=B/A×100, wherein A is the mean normal (mean disease control), and B is the mean treated (mean disease control). […]
# [6] = test system: developing type II collagen arthritis in rats; assay: Knee histopathology in 17 day rat developing type II collagen arthritis test; conditions: 0.2 mg/kg MTX 2X/week PO (Group 6); vs vehicle controls
# [7] = 2.5 mg/kg CH-4051 alone (Group 4), FIG. 19
# [8] = 5 mg/kg CH-4051 daily PO (Group 7)
# [9] = 2.5 mg/kg CH-4051 alone (Group 4), FIG. 11
# [10] = 5 mg/kg CH-4051 alone (Group 7), FIG. 14
# [11] = 0.1 mg/kg methotrexate alone (Group 3), FIG. 18
# [12] = 0.2 mg/kg MTX 2X/week PO (Group 6)
# [13] = 0.1 mg/kg methotrexate alone (Group 3), FIG. 10
# [14] = 0.2 mg/kg methotrexate alone (Group 6), FIG. 13
compound,measurement,setting,value
"C=C(C[C@H](NC(=O)c1ccc(CCc2ccc3nc(N)nc(N)c3c2)cc1)C(=O)O)C(=O)O [CH-4051, (S)-2-{4-[2-(2,4-diamino-quinazolin-6-yl)-ethyl]-benzoylamino}-4-methylene-pentanedioic acid]",Effect on developing arthritis parameters,[1]; 2.5 mg/kg CH-4051 (daily doses),"only minimal, non-significant effects"
same,Effect on arthritis parameters,[1]; 5 mg/kg CH-4051 per day,good inhibition of all arthritis parameters
same,"Knee bone resorption, photomicrograph of highest summed score in group",[2]; [7],bone resorption
same,"Knee cartilage damage, photomicrograph of highest summed score in group",[2]; [7],moderate
same,"Knee inflammation, photomicrograph of highest summed score in group",[2]; [7],severe
same,"Knee pannus, photomicrograph of highest summed score in group",[2]; [7],mild
same,"Knee inflammation, photomicrograph of highest summed score in group","[2]; 5 mg/kg CH-4051 alone (Group 7), FIG. 22",mild
same,"Knee histopathology, reduction of summed scores","[2]; 5 mg/kg CH-4051 daily PO (Group 7), vs vehicle treated disease controls",92%
same,Body weight gain increase toward normal,[3]; [8],84%
same,"Ankle cartilage damage, photomicrograph of approximate mean summed score",[4]; [9],mild
same,"Ankle inflammation, photomicrograph of approximate mean summed score",[4]; [9],marked
same,"Ankle pannus, photomicrograph of approximate mean summed score",[4]; [9],mild
same,"Ankle cartilage damage, photomicrograph of approximate mean summed score",[4]; [10],minimal
same,"Ankle inflammation, photomicrograph of approximate mean summed score",[4]; [10],mild
same,"Ankle pannus, photomicrograph of approximate mean summed score",[4]; [10],minimal
same,"Ankle histopathology, reduction of summed scores",[4]; [8],75%
same,"Daily ankle diameter reduced toward normal, days of significance",[5]; [8],significant at days 10-17
same,Ankle diameter AUC reduction toward normal,[5]; [8],81%
"CN(Cc1cnc2nc(N)nc(N)c2n1)c1ccc(C(=O)N[C@@H](CCC(=O)O)C(=O)O)cc1 [MTX, methotrexate]",Knee bone resorption score reduction,[6],95%
same,Knee cartilage damage score reduction,[6],91%
same,Knee pannus score reduction,[6],91%
same,Effect on developing arthritis parameters,[1]; 0.1 mg/kg MTX (dosed 2 times per week),"only minimal, non-significant effects"
same,Effect on arthritis parameters,[1]; 0.2 mg/kg MTX twice weekly,good inhibition of all arthritis parameters
same,"Knee bone resorption, photomicrograph of highest summed score in group",[2]; [11],bone resorption
same,"Knee cartilage damage, photomicrograph of highest summed score in group",[2]; [11],mild
same,"Knee inflammation, photomicrograph of highest summed score in group",[2]; [11],severe
same,"Knee pannus, photomicrograph of highest summed score in group",[2]; [11],mild
same,"Knee inflammation, photomicrograph of highest summed score in group","[2]; 0.2 mg/kg methotrexate alone (Group 6), FIG. 21",mild
same,Body weight gain increase toward normal,[3]; [12],68%
same,"Ankle histopathology, reduction of summed scores",[4]; 0.1 mg/kg MTX—Group 6 (so in the source),59%
same,"Ankle cartilage damage, photomicrograph of approximate mean summed score",[4]; [13],mild
same,"Ankle inflammation, photomicrograph of approximate mean summed score",[4]; [13],marked
same,"Ankle pannus, photomicrograph of approximate mean summed score",[4]; [13],minimal
same,"Ankle cartilage damage, photomicrograph of approximate mean summed score",[4]; [14],minimal
same,"Ankle inflammation, photomicrograph of approximate mean summed score",[4]; [14],mild
same,"Ankle pannus, photomicrograph of approximate mean summed score",[4]; [14],minimal
same,"Daily ankle diameter reduced toward normal, days of significance",[5]; 0.1 mg/kg MTX 2X/week PO (Group 3),significant at day 11
same,Ankle diameter AUC reduction toward normal,[5]; [12],72%

# — US8658652B2, “Antifolate combinations” (Chelsea Therapeutics, Inc., priority 2010, dated 2014)
